Test results from ChEMBL document CHEMBL3885881, “DrugMatrix”.

Species: Rattus norvegicus
Assay: DrugMatrix - Regimen: Daily Repeat
Assay type: toxicity, organism-based, Sprague-Dawley
Design: regimen Daily Repeat, gender Male, age 6-8 weeks
Details: in vivo, po, route oral GAVAGE, […]; for ABSOLUTE BASOPHIL / ABSOLUTE EOSINOPHIL / ABSOLUTE LYMPHOCYTE / ABSOLUTE MONOCYTE / ABSOLUTE SEGMENTED NEUTROPHIL / BASOPHIL / EOSINOPHIL / ERYTHROCYTE COUNT / HEMATOCRIT / HEMOGLOBIN / LEUKOCYTE COUNT / LYMPHOCYTE / MEAN CORPUSCULAR HEMOGLOBIN / MEAN CORPUSCULAR HEMOGLOBIN CONCENTRATION / MEAN CORPUSCULAR VOLUME / MONOCYTE / NEUTROPHIL / NUCLEATED RED BLOOD CELLS / PLATELET COUNT: tissue Blood; for ALANINE AMINOTRANSFERASE / ALBUMIN / ALKALINE PHOSPHATASE / ASPARTATE AMINOTRANSFERASE / BLOOD UREA NITROGEN / CARBON DIOXIDE / CHLORIDE / CHOLESTEROL / CREATINE PHOSPHOKINASE / CREATININE / GLUCOSE / LACTATE DEHYDROGENASE / LIPASE / PHOSPHORUS / POTASSIUM / SODIUM / TOTAL BILIRUBIN / TOTAL PROTEIN / URIC ACID: tissue Plasma
[1] = 29 mg/kg, 120 h, dose level Low, time 5 day
[2] = 450 mg/kg, 72 h, dose level High, time 3 day
[3] = 450 mg/kg, 120 h, dose level High, time 5 day

## C[C@@H]1CN(c2c(F)c(N)c3c(=O)c(C(=O)O)cn(C4CC4)c3c2F)C[C@H](C)N1 [SPARFLOXACIN]
[1]
  ABSOLUTE BASOPHIL: 0 CELLS/uL
  ABSOLUTE EOSINOPHIL: 69.33 CELLS/uL
  ABSOLUTE LYMPHOCYTE: 8350.33 CELLS/uL
  ABSOLUTE MONOCYTE: 91.33 CELLS/uL
  ABSOLUTE SEGMENTED NEUTROPHIL: 455.67 CELLS/uL
  BASOPHIL: 0%
  EOSINOPHIL: 0.67%
  ERYTHROCYTE COUNT: 5.79 x10E6/uL
  HEMATOCRIT: 35.13%
  HEMOGLOBIN: 13.97 G/DL
  LEUKOCYTE COUNT: 8.97 x10E3/uL
  LYMPHOCYTE: 93%
  MEAN CORPUSCULAR HEMOGLOBIN: 24.13 pg
  MEAN CORPUSCULAR HEMOGLOBIN CONCENTRATION: 39.73 G/DL
  MEAN CORPUSCULAR VOLUME: 60.73 fL
  MONOCYTE: 1%
  NEUTROPHIL: 5.33%
  NUCLEATED RED BLOOD CELLS: 0 /100WBC
  PLATELET COUNT: 1048 x10E3/uL
  ALANINE AMINOTRANSFERASE: 62 u/L
  ALBUMIN: 4.03 G/DL
  ALKALINE PHOSPHATASE: 251.67 u/L
  ASPARTATE AMINOTRANSFERASE: 82 u/L
  BLOOD UREA NITROGEN: 13.33 mg/dL
  CARBON DIOXIDE: 33 mmol/L
  CHLORIDE: 98.33 MEQ/L
  CHOLESTEROL: 65.67 mg/dL
  CREATINE PHOSPHOKINASE: 381.67 u/L
  CREATININE: 0.18 mg/dL
  GLUCOSE: 147.33 mg/dL
  LACTATE DEHYDROGENASE: 161.33 u/L
  LIPASE: 12 u/L
  PHOSPHORUS: 10.9 mg/dL
  POTASSIUM: 6.43 MEQ/L
  SODIUM: 144.2 MEQ/L
  TOTAL BILIRUBIN: 0.13 mg/dL
  TOTAL PROTEIN: 6 G/DL
  URIC ACID: 0.77 mg/dL
[2]
  ABSOLUTE BASOPHIL: 0 CELLS/uL
  ABSOLUTE EOSINOPHIL: 0 CELLS/uL
  ABSOLUTE LYMPHOCYTE: 14211.67 CELLS/uL
  ABSOLUTE MONOCYTE: 0 CELLS/uL
  ABSOLUTE SEGMENTED NEUTROPHIL: 1355 CELLS/uL
  BASOPHIL: 0%
  EOSINOPHIL: 0%
  ERYTHROCYTE COUNT: 5.74 x10E6/uL
  HEMATOCRIT: 34.87%
  HEMOGLOBIN: 13.93 G/DL
  LEUKOCYTE COUNT: 15.57 x10E3/uL
  LYMPHOCYTE: 91.33%
  MEAN CORPUSCULAR HEMOGLOBIN: 24.3 pg
  MEAN CORPUSCULAR HEMOGLOBIN CONCENTRATION: 40 G/DL
  MEAN CORPUSCULAR VOLUME: 60.77 fL
  MONOCYTE: 0%
  NEUTROPHIL: 8.67%
  NUCLEATED RED BLOOD CELLS: 0 /100WBC
  PLATELET COUNT: 1148.33 x10E3/uL
  ALANINE AMINOTRANSFERASE: 55.33 u/L
  ALBUMIN: 3.93 G/DL
  ALKALINE PHOSPHATASE: 277.33 u/L
  ASPARTATE AMINOTRANSFERASE: 69.33 u/L
  BLOOD UREA NITROGEN: 12 mg/dL
  CARBON DIOXIDE: 31.67 mmol/L
  CHLORIDE: 101 MEQ/L
  CHOLESTEROL: 72.33 mg/dL
  CREATINE PHOSPHOKINASE: 173 u/L
  CREATININE: 0.21 mg/dL
  GLUCOSE: 159.67 mg/dL
  LACTATE DEHYDROGENASE: 146 u/L
  LIPASE: 10.67 u/L
  PHOSPHORUS: 10.6 mg/dL
  POTASSIUM: 6.2 MEQ/L
  SODIUM: 143.4 MEQ/L
  TOTAL BILIRUBIN: 0.17 mg/dL
  TOTAL PROTEIN: 5.73 G/DL
  URIC ACID: 1.3 mg/dL
[3]
  ABSOLUTE BASOPHIL: 0 CELLS/uL
  ABSOLUTE EOSINOPHIL: 0 CELLS/uL
  ABSOLUTE LYMPHOCYTE: 8740 CELLS/uL
  ABSOLUTE MONOCYTE: 96.67 CELLS/uL
  ABSOLUTE SEGMENTED NEUTROPHIL: 396.67 CELLS/uL
  BASOPHIL: 0%
  EOSINOPHIL: 0%
  ERYTHROCYTE COUNT: 5.14 x10E6/uL
  HEMATOCRIT: 33.83%
  HEMOGLOBIN: 13.17 G/DL
  LEUKOCYTE COUNT: 9.23 x10E3/uL
  LYMPHOCYTE: 94.67%
  MEAN CORPUSCULAR HEMOGLOBIN: 25.83 pg
  MEAN CORPUSCULAR HEMOGLOBIN CONCENTRATION: 38.93 G/DL
  MEAN CORPUSCULAR VOLUME: 66.27 fL
  MONOCYTE: 1%
  NEUTROPHIL: 4.33%
  NUCLEATED RED BLOOD CELLS: 0 /100WBC
  PLATELET COUNT: 1047.33 x10E3/uL
  ALANINE AMINOTRANSFERASE: 67.33 u/L
  ALBUMIN: 4.03 G/DL
  ALKALINE PHOSPHATASE: 374 u/L
  ASPARTATE AMINOTRANSFERASE: 88.67 u/L
  BLOOD UREA NITROGEN: 11 mg/dL
  CARBON DIOXIDE: 30 mmol/L
  CHLORIDE: 97.67 MEQ/L
  CHOLESTEROL: 86 mg/dL
  CREATINE PHOSPHOKINASE: 412.67 u/L
  CREATININE: 0.19 mg/dL
  GLUCOSE: 177.67 mg/dL
  LACTATE DEHYDROGENASE: 159.67 u/L
  LIPASE: 10.33 u/L
  PHOSPHORUS: 12.17 mg/dL
  POTASSIUM: 5.6 MEQ/L
  SODIUM: 141 MEQ/L
  TOTAL BILIRUBIN: 0.1 mg/dL
  TOTAL PROTEIN: 5.93 G/DL
  URIC ACID: 1 mg/dL
